ChEMBL document CHEMBL4020788, “Synthesis, SAR and molecular docking studies of benzo[d]thiazole-hydrazones as potential antibacterial and antifungal agents” (2017)
≈ marks a conversion by molar mass, not a printed value. Calls of active or inactive are those of the source. The calls are words filed in the database; no cut-off is given here.

Key:
Format in all cases: functional
Staphylococcus aureus [1] = assay: Antibacterial activity against Staphylococcus aureus at 25 ug/ml after 24 hrs by agar well diffusion method; conditions: read-out: DIZ
Staphylococcus aureus [2] = assay: Antibacterial activity against Staphylococcus aureus at 50 ug/ml after 24 hrs by agar well diffusion method; conditions: read-out: DIZ
Staphylococcus aureus [3] = assay: Antibacterial activity against Staphylococcus aureus at 75 ug/ml after 24 hrs by agar well diffusion method; conditions: read-out: DIZ
Staphylococcus aureus [4] = assay: Antibacterial activity against Staphylococcus aureus at 100 ug/ml after 24 hrs by agar well diffusion method; conditions: read-out: DIZ
Bacillus subtilis [5] = assay: Antibacterial activity against Bacillus subtilis at 25 ug/ml after 24 hrs by agar well diffusion method; conditions: read-out: DIZ
Bacillus subtilis [6] = assay: Antibacterial activity against Bacillus subtilis at 50 ug/ml after 24 hrs by agar well diffusion method; conditions: read-out: DIZ
Bacillus subtilis [7] = assay: Antibacterial activity against Bacillus subtilis at 75 ug/ml after 24 hrs by agar well diffusion method; conditions: read-out: DIZ
Bacillus subtilis [8] = assay: Antibacterial activity against Bacillus subtilis at 100 ug/ml after 24 hrs by agar well diffusion method; conditions: read-out: DIZ
Escherichia coli [9] = assay: Antibacterial activity against Escherichia coli at 25 ug/ml after 24 hrs by agar well diffusion method; conditions: read-out: DIZ
Escherichia coli [10] = assay: Antibacterial activity against Escherichia coli at 50 ug/ml after 24 hrs by agar well diffusion method; conditions: read-out: DIZ
Escherichia coli [11] = assay: Antibacterial activity against Escherichia coli at 75 ug/ml after 24 hrs by agar well diffusion method; conditions: read-out: DIZ
Escherichia coli [12] = assay: Antibacterial activity against Escherichia coli at 100 ug/ml after 24 hrs by agar well diffusion method; conditions: read-out: DIZ
Klebsiella pneumoniae [13] = assay: Antibacterial activity against Klebsiella pneumoniae at 25 ug/ml after 24 hrs by agar well diffusion method; conditions: read-out: DIZ
Klebsiella pneumoniae [14] = assay: Antibacterial activity against Klebsiella pneumoniae at 50 ug/ml after 24 hrs by agar well diffusion method; conditions: read-out: DIZ
Klebsiella pneumoniae [15] = assay: Antibacterial activity against Klebsiella pneumoniae at 75 ug/ml after 24 hrs by agar well diffusion method; conditions: read-out: DIZ
Klebsiella pneumoniae [16] = assay: Antibacterial activity against Klebsiella pneumoniae at 100 ug/ml after 24 hrs by agar well diffusion method; conditions: read-out: DIZ
Staphylococcus aureus [17] = assay: Antibacterial activity against methicillin resistant Staphylococcus aureus MRSA090 at 25 ug/ml after 24 hrs by agar well diffusion method; conditions: MRSA090, 24 h, read-out: DIZ
Staphylococcus aureus [18] = assay: Antibacterial activity against methicillin resistant Staphylococcus aureus MRSA090 at 50 ug/ml after 24 hrs by agar well diffusion method; conditions: MRSA090, 24 h, read-out: DIZ
Staphylococcus aureus [19] = assay: Antibacterial activity against methicillin resistant Staphylococcus aureus MRSA090 at 75 ug/ml after 24 hrs by agar well diffusion method; conditions: MRSA090, 24 h, read-out: DIZ
Staphylococcus aureus [20] = assay: Antibacterial activity against methicillin resistant Staphylococcus aureus MRSA090 at 100 ug/ml after 24 hrs by agar well diffusion method; conditions: MRSA090, 24 h, read-out: DIZ
Klebsiella pneumoniae [21] = assay: Antibacterial activity against Klebsiella pneumoniae incubated for overnight by microdilution method
Staphylococcus aureus [22] = assay: Antibacterial activity against Staphylococcus aureus incubated for overnight by microdilution method
Bacillus subtilis [23] = assay: Antibacterial activity against Bacillus subtilis incubated for overnight by microdilution method
Escherichia coli [24] = assay: Antibacterial activity against Escherichia coli incubated for overnight by microdilution method
Staphylococcus aureus [25] = assay: Antibacterial activity against methicillin resistant Staphylococcus aureus MRSA090 incubated for overnight by microdilution method
Aspergillus niger [26] = assay: Antifungal activity against Aspergillus niger at 25 ug/ml after 48 hrs by agar well diffusion method
Aspergillus niger [27] = assay: Antifungal activity against Aspergillus niger at 50 ug/ml after 48 hrs by agar well diffusion method
Aspergillus niger [28] = assay: Antifungal activity against Aspergillus niger at 75 ug/ml after 48 hrs by agar well diffusion method
Aspergillus niger [29] = assay: Antifungal activity against Aspergillus niger at 100 ug/ml after 48 hrs by agar well diffusion method; conditions: read-out: DIZ
Fusarium verticillioides [30] = assay: Antifungal activity against Fusarium moniliforme at 25 ug/ml after 48 hrs by agar well diffusion method
Fusarium verticillioides [31] = assay: Antifungal activity against Fusarium moniliforme at 50 ug/ml after 48 hrs by agar well diffusion method
Fusarium verticillioides [32] = assay: Antifungal activity against Fusarium moniliforme at 75 ug/ml after 48 hrs by agar well diffusion method
Fusarium verticillioides [33] = assay: Antifungal activity against Fusarium moniliforme at 100 ug/ml after 48 hrs by agar well diffusion method
Fusarium oxysporum [34] = assay: Antifungal activity against Fusarium oxysporum at 25 ug/ml after 48 hrs by agar well diffusion method
Fusarium oxysporum [35] = assay: Antifungal activity against Fusarium oxysporum at 50 ug/ml after 48 hrs by agar well diffusion method
Fusarium oxysporum [36] = assay: Antifungal activity against Fusarium oxysporum at 75 ug/ml after 48 hrs by agar well diffusion method
Fusarium oxysporum [37] = assay: Antifungal activity against Fusarium oxysporum at 100 ug/ml after 48 hrs by agar well diffusion method

SMILES	zone of inhibition at 25 µg/mL (Staphylococcus aureus [1])	zone of inhibition at 50 µg/mL (Staphylococcus aureus [2])	zone of inhibition at 75 µg/mL (Staphylococcus aureus [3])	zone of inhibition at 100 µg/mL (Staphylococcus aureus [4])	zone of inhibition at 25 µg/mL (Bacillus subtilis [5])	zone of inhibition at 50 µg/mL (Bacillus subtilis [6])	zone of inhibition at 75 µg/mL (Bacillus subtilis [7])	zone of inhibition at 100 µg/mL (Bacillus subtilis [8])	zone of inhibition at 25 µg/mL (Escherichia coli [9])	zone of inhibition at 50 µg/mL (Escherichia coli [10])	zone of inhibition at 75 µg/mL (Escherichia coli [11])	zone of inhibition at 100 µg/mL (Escherichia coli [12])	zone of inhibition at 25 µg/mL (Staphylococcus aureus [17])	zone of inhibition at 50 µg/mL (Staphylococcus aureus [18])	zone of inhibition at 75 µg/mL (Staphylococcus aureus [19])	zone of inhibition at 100 µg/mL (Staphylococcus aureus [20])	MIC (Staphylococcus aureus [22])	MIC (Bacillus subtilis [23])	MIC (Escherichia coli [24])	MIC (Staphylococcus aureus [25])	other results
O=C(N[C@H](CO)[C@H](O)c1ccc([N+](=O)[O-])cc1)C(Cl)Cl [CHLORAMPHENICOL]	24 mm	28 mm	34 mm	37 mm	21 mm	25 mm	31 mm	34 mm	23 mm	27 mm	32 mm	38 mm	19 mm	22 mm	27 mm	31 mm	27 µg/mL (≈ 83.6 µM)	27 µg/mL (≈ 83.6 µM)	25 µg/mL (≈ 77.4 µM)	25 µg/mL (≈ 77.4 µM)	zone of inhibition at 25 µg/mL (Klebsiella pneumoniae [13]): 24 mm; zone of inhibition at 50 µg/mL (Klebsiella pneumoniae [14]): 29 mm; zone of inhibition at 75 µg/mL (Klebsiella pneumoniae [15]): 33 mm; zone of inhibition at 100 µg/mL (Klebsiella pneumoniae [16]): 36 mm; MIC (Klebsiella pneumoniae [21]): 28 µg/mL (≈ 86.7 µM)
CO[C@H]1/C=C/O[C@@]2(C)Oc3c(C)c(O)c4c(O)c(c(/C=N/N5CCN(C)CC5)c(O)c4c3C2=O)NC(=O)/C(C)=C\C=C\[C@H](C)[C@H](O)[C@@H](C)[C@@H](O)[C@@H](C)[C@H](OC(C)=O)[C@@H]1C [RIFAMPIN]	–	–	–	–	–	–	–	–	–	–	–	–	23 mm	27 mm	30 mm	33 mm	21 µg/mL (≈ 25.5 µM)	21 µg/mL (≈ 25.5 µM)	22 µg/mL (≈ 26.7 µM)	22 µg/mL (≈ 26.7 µM)	MIC (Klebsiella pneumoniae [21]): 22 µg/mL (≈ 26.7 µM)
COc1ccc(/C=N/Nc2nc3cccc(C)c3s2)cc1	12 mm	14 mm	19 mm	24 mm	13 mm	18 mm	20 mm	26 mm	10 mm	12 mm	15 mm	10 mm	10 mm	13 mm	16 mm	21 mm	30 µg/mL (≈ 101 µM)	28 µg/mL (≈ 94.2 µM)	27 µg/mL (≈ 90.8 µM)	32 µg/mL (≈ 108 µM)	zone of inhibition at 25 µg/mL (Klebsiella pneumoniae [13]): 14 mm; zone of inhibition at 50 µg/mL (Klebsiella pneumoniae [14]): 16 mm; zone of inhibition at 75 µg/mL (Klebsiella pneumoniae [15]): 20 mm; zone of inhibition at 100 µg/mL (Klebsiella pneumoniae [16]): 22 mm; zone of inhibition at 25 µg/mL (Aspergillus niger [26]; read-out: DIZ): 8 mm; zone of inhibition at 50 µg/mL (Aspergillus niger [27]; read-out: DIZ): 11 mm; zone of inhibition at 75 µg/mL (Aspergillus niger [28]; read-out: DIZ): 14 mm; zone of inhibition at 100 µg/mL (Aspergillus niger [29]): 16 mm; diameter of the inhibition zone (DIZ) (Fusarium verticillioides [30]): inactive; diameter of the inhibition zone (DIZ) (Fusarium verticillioides [31]): inactive; diameter of the inhibition zone (DIZ) (Fusarium verticillioides [32]): inactive; diameter of the inhibition zone (DIZ) (Fusarium verticillioides [33]): inactive; diameter of the inhibition zone (DIZ) (Fusarium oxysporum [34]): inactive; diameter of the inhibition zone (DIZ) (Fusarium oxysporum [35]): inactive; diameter of the inhibition zone (DIZ) (Fusarium oxysporum [36]): inactive; diameter of the inhibition zone (DIZ) (Fusarium oxysporum [37]): inactive
COc1ccc(/C=N/Nc2nc3cccc(C)c3s2)c(OC)c1	10 mm	15 mm	20 mm	28 mm	13 mm	19 mm	25 mm	29 mm	13 mm	18 mm	24 mm	23 mm	15 mm	18 mm	22 mm	27 mm	26 µg/mL (≈ 79.4 µM)	24 µg/mL (≈ 73.3 µM)	25 µg/mL (≈ 76.4 µM)	22 µg/mL (≈ 67.2 µM)	zone of inhibition at 25 µg/mL (Klebsiella pneumoniae [13]): 4 mm; zone of inhibition at 50 µg/mL (Klebsiella pneumoniae [14]): 9 mm; zone of inhibition at 75 µg/mL (Klebsiella pneumoniae [15]): 12 mm; zone of inhibition at 100 µg/mL (Klebsiella pneumoniae [16]): 15 mm; diameter of the inhibition zone (DIZ) (Aspergillus niger [26]): inactive; diameter of the inhibition zone (DIZ) (Aspergillus niger [27]): inactive; diameter of the inhibition zone (DIZ) (Aspergillus niger [28]): inactive; zone of inhibition at 100 µg/mL (Aspergillus niger [29]): 4 mm; diameter of the inhibition zone (DIZ) (Fusarium verticillioides [30]): inactive; diameter of the inhibition zone (DIZ) (Fusarium verticillioides [31]): inactive; diameter of the inhibition zone (DIZ) (Fusarium verticillioides [32]): inactive; diameter of the inhibition zone (DIZ) (Fusarium verticillioides [33]): inactive; zone of inhibition at 25 µg/mL (Fusarium oxysporum [34]; read-out: DIZ): 7 mm; zone of inhibition at 50 µg/mL (Fusarium oxysporum [35]; read-out: DIZ): 12 mm; zone of inhibition at 75 µg/mL (Fusarium oxysporum [36]; read-out: DIZ): 14 mm; zone of inhibition at 100 µg/mL (Fusarium oxysporum [37]; read-out: DIZ): 17 mm; MIC (Klebsiella pneumoniae [21]): 22 µg/mL (≈ 67.2 µM)
